# Like-named read-outs stand apart in the source and are kept apart here.
# How the values were obtained:
# [1] = target: T1, DRB1*0101 (DR1) (Homo sapiens, UniProt P01903+P01911, A100R/D57E/F55L/F60I/F76Y/I96L/L162R/M171V/P40L/Q125E/R42F/V115G/Y59C); assay: biochemical; type: binding; conditions: Binding Capacity (IC 50% nM) DR1,4,7 DRB1
# T1 construct: Epstein-Barr virus (EBV) transformed homozygous cell lines were used as sources; endogenous in cells; host or cells: LG2 (EBV-transformed homozygous B cell line)
# [2] = target: T2, DRB1*0901 (DR9) (Homo sapiens, UniProt P01903+P01911, A100R/A103E/D57H/D86V/F55Y/F60I/F76Y/I96F/K127E/L162R/M171V/P40D/Q125H/Q99R/R33Q/R42F/S133A/S66N/T210M/V115G/W38K/Y107V/Y59G/Y89S); assay: biochemical; type: binding
# T2 construct: Epstein-Barr virus (EBV) transformed homozygous cell lines were used as sources; endogenous in cells
# [3] = target: T3, DRB5*0101 (DR2w2a) (Homo sapiens, UniProt P01903+Q30154); assay: biochemical; type: binding
# T3 construct: Epstein-Barr virus (EBV) transformed homozygous cell lines were used as sources; endogenous in cells; host or cells: GM3107 (EBV-transformed homozygous B cell line)
# [4] = target: T4, DRB1*0301 (DR3w17) (Homo sapiens, UniProt P01903+P01911, A100K/A102G/A103R/A169T/F55Y/I96L/K41T/L162R/M171V/P40S/Q125H/Q178H/Q39Y/R42S/S66N/T106N/T262R/W38E/Y61H); conditions: read-out: Binding Capacity (IC 50% nM) Other Alleles DR3
# [5] = target: T4, DRB1*0301 (DR3w17); assay: biochemical; conditions: Binding Capacity (IC50% nM) DR3
# [6] = target: T5, DRB1*0401 (DR4w4) (Homo sapiens, UniProt P01903+P01911, A100K/A169T/F76Y/I96L/K127E/L162R/M171V/N62H/P40V/Q125Y/R42H/S133A/S149N/S66Y/V115G/V209L/W38E); assay: biochemical; type: binding
# T5 construct: Epstein-Barr virus (EBV) transformed homozygous cell lines were used as sources; endogenous in cells; host or cells: PREISS (EBV-transformed homozygous B cell line)
# [7] = target: T6, DRB1*1302 (DR6w19) (Homo sapiens, UniProt P01903+P01911, A100E/A169T/K41T/L162R/M171V/P40S/Q125H/Q178H/Q39Y/Q99D/R42S/S66N/T262R/V115G/W38E/Y61H); assay: biochemical; type: binding
# T6 construct: Epstein-Barr virus (EBV) transformed homozygous cell lines were used as sources; the source of Class II molecules the EBV transformed homozygous cell line H0301; endogenous in cells; host or cells: H0301 (EBV-transformed homozygous B cell line)
# [8] = target: T7, DRB1*1501 (DR2w2b) (Homo sapiens, UniProt P01903+P01911); assay: biochemical; type: binding
# T7 construct: expressed in transfected cells; host or cells: transfected fibroblasts L466.1
# [9] = target: T8, DRB1*0701 (DR7) (Homo sapiens, UniProt P01903+P01911, A100R/A102G/A103Q/D57E/D86V/E43K/F76Y/K127E/L162R/M171V/P40G/Q125H/Q99D/R33Q/R42Y/R54Q/S133A/S66F/T210M/V115G/Y107V/Y59L/Y89S); assay: biochemical; type: binding
# T8 construct: Epstein-Barr virus (EBV) transformed homozygous cell lines were used as sources; endogenous in cells; host or cells: PITOUT (EBV-transformed homozygous B cell line)
# [10] = target: T9, DRB1*0405 (DR4w15) (Homo sapiens, UniProt P01903+P01911, A100R/A169T/D86S/F76Y/I96L/K127E/L162R/M171V/N62H/P40V/Q125Y/R42H/S133A/S149N/S66Y/V115G/V209L/W38E); assay: biochemical; type: binding
# T9 construct: Epstein-Barr virus (EBV) transformed homozygous cell lines were used as sources; endogenous in cells; host or cells: KT3 (EBV-transformed homozygous B cell line)
# [11] = target: T10, DRB1*1101 (DR5w11) (Homo sapiens, UniProt P01903+P01911, A100R/A169T/A87E/I96F/K41T/L162R/M171V/P40S/Q125H/Q178H/Q39Y/Q99D/R42S/S66Y/T262R/V115G/W38E); assay: biochemical; type: binding
# T10 construct: Epstein-Barr virus (EBV) transformed homozygous cell lines were used as sources; endogenous in cells; host or cells: SWEIG (EBV-transformed homozygous B cell line)
# [12] = target: T11, DRB1*0802 (DR8w2) (Homo sapiens, UniProt P01903+P01911, A100R/A103L/A169T/F76Y/H45Y/I96F/K41T/L162R/M171V/P40S/Q125H/Q178H/Q39Y/Q99D/R218S/R42G/S66Y/V115G/W38E); assay: biochemical; type: binding
# T11 construct: Epstein-Barr virus (EBV) transformed homozygous cell lines were used as sources; endogenous in cells; host or cells: OLL (EBV-transformed homozygous B cell line)
# [13] = target: T12, DRB1*1201 (DR5w12) (Homo sapiens, UniProt P01903+P01911, A100R/A169T/D57E/D86V/F55L/H45Y/K41T/L162R/M171V/P40S/Q125H/Q178H/Q39Y/Q99D/R42G/S66L/T262R/V114A/V67L/W38E/Y59H/Y61H/Y89S); assay: biochemical; type: binding
# T12 construct: Epstein-Barr virus (EBV) transformed homozygous cell lines were used as sources; endogenous in cells; host or cells: Herluf (EBV-transformed homozygous B cell line)
# [14] = read-out: Binding Capacity (IC 50% nM) Other Alleles DR9
# [15] = Binding Capacity (IC 50% nM) Other Alleles DR2w2a
# [16] = Binding Capacity (IC 50% nM) Other Alleles DR2w2b
# [17] = Binding Capacity (IC 50% nM) DR1,4,7 DR7
# [18] = Binding Capacity (IC 50% nM) Other Alleles DR4w15
# [19] = Binding Capacity (IC50% nM) DR5w11
# [20] = read-out: Binding Capacity (IC 50% nM) Other Alleles DR5w11
# [21] = read-out: Binding Capacity (IC 50% nM) Other Alleles DR8w2
# [22] = read-out: Binding Capacity (IC 50% nM) Other Alleles DR5w12
# [23] = Binding Capacity (IC 50% nM) Other Alleles DR9
# [24] = Binding Capacity (IC 50% nM) DR1,4,7 DR4w4
# [25] = Binding Capacity (IC 50% nM) Other Alleles DR6w19
# [26] = read-out: Binding Capacity (IC 50% nM) Other Alleles DR2w2b
# [27] = Binding Capacity (IC 50% nM) Other Alleles DR5w11
# [28] = Binding Capacity (IC 50% nM) Other Alleles DR8w2
# [29] = Binding Capacity (IC50% nM) DR5w12
# T10 sequence (P01903 26-254, other chains not shown): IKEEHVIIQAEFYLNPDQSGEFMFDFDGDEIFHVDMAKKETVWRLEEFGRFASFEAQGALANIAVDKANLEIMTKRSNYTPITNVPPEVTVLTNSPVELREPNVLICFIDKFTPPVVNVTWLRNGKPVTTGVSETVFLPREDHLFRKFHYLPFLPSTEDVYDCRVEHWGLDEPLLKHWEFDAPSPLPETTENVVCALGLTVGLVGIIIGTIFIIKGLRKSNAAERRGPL
smiles,measurement,setting,value
CC[C@H](C)[C@H](NC(=O)[C@H](CC(C)C)NC(=O)[C@H](Cc1ccccc1)NC(=O)[C@H](CS)NC(=O)[C@@H](NC(=O)[C@H](C)NC(=O)[C@@H](N)Cc1ccccc1)[C@@H](C)O)C(=O)N1CCC[C@H]1C(=O)N[C@@H](CC(C)C)C(=O)N[C@H](C(=O)N[C@@H](CO)C(=O)N[C@@H](CCC(N)=O)C(=O)N[C@@H](Cc1ccccc1)C(=O)N[C@@H](Cc1ccccc1)C(=O)N[C@@H](CC(C)C)C(=O)N1CCC[C@H]1C(=O)O)[C@@H](C)O [Peptide 1136.14],IC50,[1],< 1000 nM
same,IC50,[2]; [14],> 1000 nM
same,IC50,[3]; [15],< 1000 nM
same,IC50,[4],> 1000 nM
same,IC50,[5],> 10000 nM
same,IC50,"[6]; read-out: Binding Capacity (IC 50% nM) DR1,4,7 DR4w4",> 1000 nM
same,IC50,[7]; read-out: Binding Capacity (IC 50% nM) Other Alleles DR6w19,> 1000 nM
same,IC50,[8]; [16],< 1000 nM
same,IC50,[9]; [17],< 1000 nM
same,IC50,[9]; Binding Capacity (IC50% nM) DR7,100 nM
same,IC50,[10]; [18],< 1000 nM
same,IC50,[11]; [19],> 10000 nM
same,IC50,[11]; [20],> 1000 nM
same,IC50,[12]; Binding Capacity (IC50% nM) DR8w2,> 10000 nM
same,IC50,[12]; [21],> 1000 nM
same,IC50,[13]; [22],> 1000 nM
CC(C)C[C@H](NC(=O)CNC(=O)[C@H](C)NC(=O)[C@H](CC(C)C)NC(=O)[C@@H](NC(=O)[C@H](CO)NC(=O)[C@@H](NC(=O)[C@H](C)NC(=O)[C@H](CC(C)C)NC(=O)[C@H](CCCCN)NC(=O)[C@H](Cc1ccc(O)cc1)NC(=O)[C@@H](N)CCCCN)[C@@H](C)O)C(C)C)C(=O)N[C@@H](CC(C)C)C(=O)NCC(=O)N[C@@H](CC(N)=O)C(=O)O [Peptide F107.09],IC50,[1],< 1000 nM
same,IC50,[2]; [23],< 1000 nM
same,IC50,[3]; [15],< 1000 nM
same,IC50,[4],> 1000 nM
same,IC50,[5],> 10000 nM
same,IC50,[6]; [24],< 1000 nM
same,IC50,[7]; [25],< 1000 nM
same,IC50,[8]; [26],> 1000 nM
same,IC50,[9]; [17],< 1000 nM
same,IC50,[10]; [18],< 1000 nM
same,IC50,[11]; [27],< 1000 nM
same,IC50,[12]; [28],< 1000 nM
same,IC50,[13]; [29],> 10000 nM
same,IC50,[13]; [22],> 1000 nM
CC[C@H](C)[C@H](N)C(=O)N[C@@H](CCCCN)C(=O)N[C@@H](CC(C)C)C(=O)N1CCC[C@H]1C(=O)N[C@H](C(=O)N[C@H](C(=O)N[C@@H](CC(C)C)C(=O)N[C@@H](C)C(=O)N[C@@H](Cc1ccccc1)C(=O)N[C@@H](C)C(=O)N[C@H](C(=O)N[C@@H](CS)C(=O)N[C@@H](Cc1ccccc1)C(=O)N[C@@H](CC(C)C)C(=O)N[C@H](C(=O)N1CCC[C@H]1C(=O)O)[C@@H](C)CC)[C@@H](C)O)[C@@H](C)CC)[C@@H](C)CC [Peptide 1136.12],IC50,[1],< 1000 nM
same,IC50,[2]; [14],> 1000 nM
same,IC50,[3]; read-out: Binding Capacity (IC 50% nM) Other Alleles DR2w2a,> 1000 nM
same,IC50,[4],> 1000 nM
same,IC50,[5],> 10000 nM
same,IC50,[6]; [24],< 1000 nM
same,IC50,[7]; [25],< 1000 nM
same,IC50,[8]; [16],< 1000 nM
same,IC50,"[9]; read-out: Binding Capacity (IC 50% nM) DR1,4,7 DR7",> 1000 nM
same,IC50,[10]; read-out: Binding Capacity (IC 50% nM) Other Alleles DR4w15,> 1000 nM
same,IC50,[11]; [19],> 10000 nM
same,IC50,[11]; [20],> 1000 nM
same,IC50,[12]; [21],> 1000 nM
same,IC50,[13]; [29],> 10000 nM
same,IC50,[13]; [22],> 1000 nM
CC(C)C[C@H](NC(=O)[C@H](CC(C)C)NC(=O)CNC(=O)[C@H](C)NC(=O)[C@H](CC(C)C)NC(=O)[C@@H](NC(=O)[C@H](CO)NC(=O)[C@@H](NC(=O)[C@H](C)NC(=O)[C@H](CC(C)C)NC(=O)[C@H](CCCCN)NC(=O)[C@H](Cc1ccc(O)cc1)NC(=O)[C@H](CCCCN)NC(=O)[C@H](CO)NC(=O)[C@@H](N)CCCCN)[C@@H](C)O)C(C)C)C(=O)O [Peptide 1188.16],IC50,[1],< 1000 nM
same,IC50,[2]; [23],< 1000 nM
same,IC50,[3]; [15],< 1000 nM
same,IC50,[4],> 1000 nM
same,IC50,[5],> 10000 nM
same,IC50,[6]; [24],< 1000 nM
same,IC50,[7]; [25],< 1000 nM
same,IC50,[8]; [26],> 1000 nM
same,IC50,[9]; [17],< 1000 nM
same,IC50,[10]; [18],< 1000 nM
same,IC50,[11]; [27],< 1000 nM
same,IC50,[12]; [28],< 1000 nM
same,IC50,[13]; [29],> 10000 nM
same,IC50,[13]; [22],> 1000 nM

# — patent publication US6413517B1, “Identification of broadly reactive DR restricted epitopes” (Epimmune, Inc., priority 1997, dated 2002)
